Tests used:
[1] = system: MCF-7, clone WS8, cells; test: MCF-7 cell proliferation assay of estrogenic agonist activity; assay type: cell-based, human; settings: logarithmic (base 10) Relative Proliferative Effect in MCF-7 assay; expected or measured values
Description: As used herein, the terms “estrogenic agonist activity” or “estrogenic activity” refer to the ability of a compound to mimic hormone-like activity through interaction with an endogenous estrogen receptor, typically an endogenous human estrogen receptor. […] The MCF-7 assay uses MCF-7, clone WS8, cells to measure whether and to what extent a substance induces cell proliferation via estrogen receptor (ER)-mediated pathways. The method is described in “Test Method Nomination: MCF-7 Cell Proliferation Assay of Estrogenic agonist activity” submitted for validation by CertiChem, Inc. to the National Toxicology Program Interagency Center for the Evaluation of Alternative Toxicological Methods (NICEA™) on Jan. 19, 2006 (available online at http://iccvam.niehs.nih.gov/methods/endocrine/endodocs/SubmDoc.pdf). As a brief summary of the assay, MCF-7, clone WS8, cells are maintained at 37° C. in RMPI (or Roswell Park Memorial Institute medium) containing Phenol Red (e.g., GIBCO Catalog Number 11875119) and supplemented with the indicated additives for routine culture. An aliquot of cells maintained at 37° C. are grown for 2 days in phenol-free media containing 5% charcoal stripped fetal bovine serum in a 25 cm^2 tissue culture flask. Using a robotic dispenser such as an epMotion 5070 unit, MCF-7 cells are then seeded at 400 cells per well in 0.2 ml of hormone-free culture medium in Corning 96-well plates. The cells are adapted for 3 days in the hormone-free culture medium prior to adding the chemical to be assayed for estrogenic agonist activity. The media containing the test chemical is replaced daily for 6 days. At the end of the 7-day exposure to the test chemical, the media is removed, the wells are washed once with 0.2 ml of HBSS (Hanks' Balanced Salt Solution), and then assayed to quantify amounts of DNA per well using a micro-plate modification of the Burton diphenylamine (DPA) assay, which is used to calculate the level of cell proliferation.
RPE is the ratio between the EC50 of the test chemical and the EC50 of the control substance 17-beta estradiol times 100, where EC50 is “effective concentration 50%” or half-maximum stimulation concentration for cell proliferation measured as total DNA in the MCF-7 assay.
Tables 1 and 2 provided below include some compounds and their expected or measured logarithmic RPE values in the MCF-7 assay.

[2] = target: T1, estrogen receptor (Homo sapiens, UniProt P03372); test: suitable in vitro assay of estrogenic agonist activity correlated to the MCF-7 assay; settings: suitable in vitro assay correlated to MCF-7 assay
T1 sequence (P03372 1-595): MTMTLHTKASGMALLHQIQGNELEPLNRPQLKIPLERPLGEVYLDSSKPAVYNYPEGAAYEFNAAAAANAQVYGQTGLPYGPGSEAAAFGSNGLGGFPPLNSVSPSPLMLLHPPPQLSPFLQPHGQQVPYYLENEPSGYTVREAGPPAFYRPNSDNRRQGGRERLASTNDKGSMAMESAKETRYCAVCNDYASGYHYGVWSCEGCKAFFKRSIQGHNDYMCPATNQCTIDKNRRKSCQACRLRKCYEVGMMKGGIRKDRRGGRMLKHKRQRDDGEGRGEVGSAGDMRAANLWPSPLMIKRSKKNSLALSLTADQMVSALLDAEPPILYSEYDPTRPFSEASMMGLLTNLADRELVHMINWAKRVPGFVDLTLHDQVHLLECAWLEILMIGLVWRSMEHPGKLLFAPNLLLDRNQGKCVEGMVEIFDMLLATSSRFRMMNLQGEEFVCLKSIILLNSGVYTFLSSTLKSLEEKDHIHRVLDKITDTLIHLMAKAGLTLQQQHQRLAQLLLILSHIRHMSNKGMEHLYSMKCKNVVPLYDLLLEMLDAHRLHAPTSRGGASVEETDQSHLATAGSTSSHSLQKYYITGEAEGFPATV
Description: While not intending to be bound by any theory, it is believed that the positioning of one or more R^1 groups at an ortho position relative to the oxygen atom depicted in Formulas (I) and (IA) may be particularly beneficial in reducing or eliminating estrogenic agonist activity.

[3] = Gel-time comparison of two-part epoxy compositions with curing agents; assay type: physicochemical; settings: for Gel time: 1:1 stoichiometric mix, 100 g; for Difference in gel time: TMBPFDGE minus BADGE; for Gel-Time % increase: from BADGE to TMBPFDGE
Experimental: Two-part epoxy compositions of bisphenol A diglycidyl ether (BADGE) (e.g., molecular weight of approximately 340 g/mol) and tetramethyl bisphenol F diglycidyl ether (TMBPFDGE) were prepared and mixed with various amine-based curing agents to compare the respective gel times of the compositions. The BADGE and TMBPFDGE monomer epoxides (e.g., molecular weight of approximately 340.4 g/mol and 368.6 g/mol respectively) were reduced to approximately 90% weight solids with xylene solvent. Gel times were measured using 100 g mass samples with a Paul N. Gardner Co, Inc. gel time recorder model S-5154. The gel-time values reported are in minutes, along with the difference between BADGE and TMBPFDGE compositions using the same curing agent, and the percent increase in gel time from BADGE to TMBPFDGE.

[4] = curing agent ANACAMIDE 375A (polyamide)
[5] = curing agent ANACAMINE 503 (amidoamine)
[6] = curing agent ANACAMINE 2393 (cycloaliphatic amine)
[7] = curing agent CARDOLITE 3040 (phenalkamide)
[8] = curing agent CARDOLITE NC541 (phenalkamine)
[9] = curing agent GABEPRO GPM-830CB (mercaptan)
[10] = curing agent TETA, epoxy 90% solids in xylene

Cc1cc(Cc2cc(C)cc(C3(C)CCCCC3)c2O)c(O)c(C2(C)CCCCC2)c1 [2,2′-Methylenebis(6-(1-methylcyclohexyl)-4-methylphenol]
Log RPE [1]: less than −4

Cc1cc(Cc2cc(C)cc(C(C)(C)C)c2O)c(O)c(C(C)(C)C)c1 [2,2′-methylenebis(4-methyl-6-t-butylphenol)]
estrogenic agonist activity [2]: do not exhibit appreciable estrogenic agonist activity

CC(C)(C)c1cc(O)c(C(C)(C)C)cc1O [2,5-di-t-butylhydroquinone]
estrogenic agonist activity [2]: do not exhibit appreciable estrogenic agonist activity

CCCC(c1cc(C(C)(C)C)c(O)cc1C)c1cc(C(C)(C)C)c(O)cc1C [4,4′-butylidenebis(2-t-butyl-5-methylphenol)]
estrogenic agonist activity [2]: do not exhibit appreciable estrogenic agonist activity

CC(C)(C)c1cc(Cc2cc(C(C)(C)C)c(O)c(C(C)(C)C)c2)cc(C(C)(C)C)c1O [4,4′-methylenebis(2,6-di-t-butylphenol)]
estrogenic agonist activity [2]: do not exhibit appreciable estrogenic agonist activity

Cc1cc(Cc2cc(C)c(O)c(C)c2)cc(C)c1O [4,4′-methylenebis(2,6-dimethylphenol)]
estrogenic agonist activity [2]: do not exhibit appreciable estrogenic agonist activity

C[C@]12CC[C@@H]3c4ccc(O)cc4CC[C@H]3[C@@H]1CC[C@@H]2O [17β-estradiol]
Log RPE [1]: 2.00

CC(C)(c1ccc(OCC2CO2)cc1)c1ccc(OCC2CO2)cc1 (centres unmarked) [BADGE, bisphenol A diglycidyl ether, reference compound]
Gel time [3, 4]: 312 min
Gel time [3, 5]: 211 min
Gel time [3, 6]: 55 min
Gel time [3, 7]: 198 min
Gel time [3, 8]: 86 min
Gel time [3, 9]: 16 min
Gel time ([3]; curing agent PACM): 275 min
Gel time [3, 10]: 74 min

Oc1ccc(Cc2ccc(O)cc2)cc1 [Bisphenol F]
Log RPE [1]: −2

O=S(=O)(c1ccc(O)cc1)c1ccc(O)cc1 [Bisphenol S]
Log RPE [1]: −2

Cc1cc(Cc2cc(C)c(OCC3CO3)c(C)c2)cc(C)c1OCC1CO1 (centres unmarked) [TMBPFDGE, tetramethyl bisphenol F diglycidyl ether]
Difference in gel time [3, 4]: 454 min
Difference in gel time [3, 5]: 469 min
Difference in gel time [3, 6]: 343 min
Difference in gel time [3, 7]: 370 min
Difference in gel time [3, 8]: 206 min
Difference in gel time [3, 9]: 82 min
Difference in gel time ([3]; curing agent PACM): 510 min
Difference in gel time ([3]; curing agent TETA): 333 min
Gel time [3, 4]: 766 min
Gel time [3, 5]: 680 min
Gel time [3, 6]: 398 min
Gel time [3, 7]: 568 min
Gel time [3, 8]: 292 min
Gel time [3, 9]: 98 min
Gel time ([3]; curing agent PACM): 785 min
Gel time [3, 10]: 407 min
Gel-Time % increase [3, 4]: 146%
Gel-Time % increase [3, 5]: 222%
Gel-Time % increase [3, 6]: 624%
Gel-Time % increase [3, 7]: 187%
Gel-Time % increase [3, 8]: 240%
Gel-Time % increase [3, 9]: 513%
Gel-Time % increase ([3]; curing agent PACM): 185%
Gel-Time % increase ([3]; curing agent TETA): 450%

Reference: patent publication US12331224B2, “Two-part epoxy compositions for adherent coatings of storage articles” (SWIMC LLC, priority 2019, dated 2025)
